Assay in all cases: inhibition of tumour cell growth, NCI panel, 48 h
Assay [1] deals with HOP-92 NSCLC.
The subject of assay [2] is HL-60(TB) leukemia.
Assay [3] concerns HCT-116 colon.
The test system of assay [4] is OVCAR-3 ovarian.
The subject of assay [5] is SNB-75 CNS.
Assay [6] has as its system NCI-H522 lung.
Assay [7] has as its system SK-MEL-5 melanoma.
Assay [8] concerns OVCAR-4 ovarian.
The subject of assay [9] is MDA-MB-231 breast.
Assay [10] concerns HCT-15 colon.

Molecules are shown by their SMILES.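 Interpolation was linear, between the two tested concentrations surrounding the appropriate level; five concentrations were tested over 48 hours in 96-well plates. Abbreviation: GI50, concentration required for 50% inhibition of growth. At the TGI there is no net growth.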 Some results are limits rather than exact numbers.

As for `CC1(CCC(=O)OC2CCCCC2)OCCO1`, the TGI in [1], in [2], in assay [3], in assay [4], in assay [5] and in assay [6] was more than 100 µM in each case. The TGI in [7], in assay [8], in assay [9] and in assay [10] was more than 100 µM in each case.

For `O=C1C=CC(=O)c2cc(Sc3ccccc3)c(=O)ccc21`, the TGI in assay [1] is more than 52.7 µM; in assay [2] it was 1.79 µM; in assay [3], 42.6 µM; in assay [4], 43.2 µM; in assay [5] it was 31.2 µM; in [6], 5.96 µM. Also, the TGI in [7] stood at 31.5 µM; in [8], 23.2 µM; in [9], 35.4 µM; in [10] it was 33.1 µM.

`COc1ccc(C(=O)c2cc3c(N)c(C(=O)Nc4ccc(C)cc4)sc3nc2C)cc1`: the GI50 in [1] is 2.15 µM; in assay [2], 2.78 µM; in assay [3] it was 3.19 µM; in [4], 2.25 µM; in assay [5], 0.571 µM; in assay [6], 2.06 µM. The GI50 in assay [7] was 3.14 µM; in assay [8], 5.55 µM; in [9] it was 2.7 µM; in assay [10], 1.27 µM. For the same compound, the TGI in [1] came out at 21.9 µM; in assay [2] it was 10.3 µM; in [3], 22.2 µM; in assay [4], 7.18 µM; in assay [5], 5.99 µM; in [6], 11.2 µM. The TGI in assay [7] was 11.5 µM; in [8], more than 100 µM; in assay [9] it was 13.2 µM; in assay [10], more than 100 µM.

With `N#CC1=C(N)NC(N2CCOCC2)=NC12Nc1ccccc1N2`, the GI50 was more than 100 µM in assay [1]; 44.2 µM in [2]; 16 µM in assay [3]; 20.2 µM in assay [4]; more than 100 µM in [5]; 23.5 µM in [6]. For the same compound, the GI50 in assay [7] was 15 µM; in assay [8], more than 100 µM; in assay [9], 15.3 µM; in [10], 35.2 µM. Also, the TGI in assay [1] is more than 100 µM; in assay [2], more than 100 µM; in assay [3], more than 100 µM; in assay [4] it was 70.7 µM; in [5] it was more than 100 µM; in assay [6], 59.3 µM. For the same compound, the TGI in [7] was 32 µM; in assay [8], more than 100 µM; in assay [9] it was 70.3 µM; in [10], more than 100 µM.

In the case of `CC(C)(C)[Si](C)(C)OC1[C@@H](O[Si](C)(C)C(C)(C)C)[C@@H](CNC(=O)NC(=O)CCl)O[C@H]1n1cnc2c(NC(=O)Nc3ccccc3)ncnc21` (stereo not given in full), the GI50 in assay [1] was 0.211 µM; in [2] it was 0.166 µM; in assay [3], 0.719 µM; in assay [4] it was 0.446 µM; in assay [5], 0.536 µM; in assay [6], 0.096 µM. Besides, the GI50 in assay [7] was 0.833 µM; in [8], 0.7 µM; in [9] it was 0.507 µM; in assay [10], 1.77 µM. For the same compound, the TGI was determined as 0.9 µM in assay [1]; 0.488 µM in assay [2]; 1.51 µM in assay [3]; 1.49 µM in [4]; 1.28 µM in assay [5]; 0.196 µM in assay [6]. Further, the TGI turned out to be 1.55 µM in [7], 1.57 µM in assay [8], 1.3 µM in assay [9] and 6.56 µM in assay [10].

On to `Nc1ccn(C2OC(COC(=O)C34CC5CC(CC(C5)C3)C4)C(O)C2O)c(=O)n1` (stereo not given), for which the TGI was more than 100 µM in assay [1]; more than 34.1 µM in assay [2]; more than 100 µM in assay [3]; more than 100 µM in assay [4]; more than 100 µM in [5]; more than 100 µM in assay [6]. In addition, the TGI in [7], in [8], in assay [9] and in assay [10] was more than 100 µM throughout.

For `COC(=O)c1cc(O)c2c(c1C(=O)OC)C[C@H]1[C@@H]3CC=C4C[C@@H](O)CC[C@]4(C)[C@H]3CC[C@]21C`, the GI50 was 2.59 µM in assay [1]; 3.03 µM in assay [2]; 3.09 µM in assay [3]; 2.19 µM in assay [4]; 9.75 µM in assay [5]; 2.17 µM in [6]. In addition, the values for the GI50 in [8], in [9] and in [10] were 3.59 µM, 2.52 µM and 3.03 µM, respectively. Moreover, the TGI in assay [1] came out at 8.2 µM; in assay [2] it was 6.93 µM; in assay [3] it was 14.6 µM; in assay [4], 4.94 µM; in assay [5], 55.9 µM; in assay [6], 5.44 µM. Besides, the TGI in assay [8] was 15.8 µM; in assay [9] it was 7.41 µM; in assay [10] it was 35.1 µM.

For `CCCCCCCCCCCCCCCCCC(=O)OCC(COC(=O)CCCN)OC(=O)CCCN` (stereo not given), the TGI was 26.6 µM in [1]; 77 µM in assay [2]; 40.1 µM in [3]; 35.3 µM in [4]; more than 100 µM in assay [5]; 50.4 µM in [6]. The TGI in assay [8] was 40.9 µM; in assay [9], 28.2 µM; in [10] it was 52.3 µM.

`Cn1c2ccc(Br)cc2c2c3c(c4c5ccccc5[nH]c4c21)C(=O)N(O)C3=O`: the GI50 in assay [1] is 0.0893 µM; in assay [2], 0.301 µM; in [3], 0.112 µM; in assay [4], 0.191 µM; in [5] it was 0.164 µM; in [6] it was 0.0506 µM. The GI50 in assay [7] is 0.128 µM; in [8], 0.244 µM; in assay [9], 0.21 µM. The TGI in [1] is 0.451 µM; in assay [2], 1.85 µM; in assay [3], 0.414 µM; in [4], 0.452 µM; in assay [5] it was 0.425 µM; in assay [6], 0.286 µM. The TGI in assay [7] was 0.266 µM; in assay [8], 0.705 µM; in assay [9] it was 0.607 µM.

For the origin of these results see PubChem BioAssay (NCI).
